Laboratory results published in patent US8029814B2, “Male produced pheromone in Tetropium fuscum (F.) and Tetropium cinnamopterum (kirby) (coleoptera: cerambycidae)” (Her Majesty the Queen in Right of Canada as represented by …, priority 2007, dated 2011).
“Also recorded” adds a separate entry of the source.

Experiments:
T. fuscum [1] = assay: Trapping with low, medium or high release of racemic fuscumol or fuscumate plus SB and E lures (FIG. 14); type: in vivo, Tetropium fuscum; settings: added to spruce volatile (SB) and ethanol (E) lures
Experimental: FIG. 14 Mean catch of T. fuscum in traps baited with low (1 mg/d), medium (4 mg/d) or high (32 mg/d) of racemic fuscumol plus spruce volatile (SB) and ethanol (E) lures.

T. castaneum [2] = assay: Trapping with low, medium or high release of racemic fuscumol or fuscumate plus SB and E lures (FIG. 13); type: in vivo, Tetropium castaneum; settings: added to spruce volatile (SB) and ethanol (E) lures
Experimental: FIG. 13 Mean catch of T. castaneum in traps baited with low (1 mg/d), medium (4 mg/d) or high (32 mg/d) of racemic fuscumol plus spruce volatile (SB) and ethanol (E) lures.

T. fuscum [3] = assay: Field trapping of fuscumol enantiomers, APT Intercept traps, Bialowieza, Poland, 2007; type: in vivo, Tetropium fuscum
Text: (§1) FIG. 4. Mean catch of a. Tetropium fuscum and b. T. castaneum in APT INTERCEPT TRAPS™ (insect traps) baited with synthetic fuscumol (pure S—, pure R—, or racemic) alone and combined with host volatile lures (SB=spruce blend, a blend of monoterpenes in an ultra high release rate (UHR) lure; E=ethanol in an UHR lure) in Bialowieza, Poland in 2007.
Trapping experiments were run in 2007 in Halifax, NS, and Bialowieża, Poland to test the response of Tetropium species to fuscumol, a sex pheromone emitted by male Tetropium fuscum (F.) and male T. cinnamopterum. […] Male T. fuscum emit primarily S-fuscumol so we hypothesized that a synthetic lure of pure S-fuscumol would be more attractive than pure R-fuscumol, and possibly more attractive than racemic fuscumol, especially if R-fuscumol was the major pheromone component of a sympatric sibling species such as T. castaneum. The ultimate objective was to determine if we could improve the efficacy of the lure for use in applications for survey and control of T. fuscum. Conducting the experiment in Poland allowed us to test the response of a different population of T. fuscum from that in Halifax and also to determine the attraction of the pheromone lures to another potentially invasive species, T. castaneum.
There were eight different lure treatments: S-fuscumol; R-fuscumol; racemic fuscumol; S-fuscumol+UHR (ultra high release rate) spruce blend lure+UHR ethanol lure; R-fuscumol+UHR spruce blend lure+UHR ethanol lure; racemic fuscumol+UHR spruce blend lure+UHR ethanol lure; UHR spruce blend lure+UHR ethanol lure; and unbaited controls.
On McNabs Island near Halifax, NS, COLOSSUS TRAPS™ (insect traps) were used with 15 replicates per treatment and in Bialowieża, APT (Advanced Pheromone Technologies) INTERCEPT TRAPS™ (insect traps) were used with 9 replicates per treatment. The treatments were laid out in randomized complete block designs with 30 m spacing between traps. Traps were out from 15 May to 27 Jun. 2007 on McNabs Island and from 30 Apr. to 25 Jun. 2007 in Bialowieża. […]

T. castaneum [4] = assay: as above; type: in vivo, Tetropium castaneum; settings: in the presence of host volatiles and ethanol
Text: as §1
Trapping experiments were run in 2007 in Halifax, NS, and Bialowieża, Poland to test the response of Tetropium species to fuscumol, a sex pheromone emitted by male Tetropium fuscum (F.) and male T. cinnamopterum. […] Male T. fuscum emit primarily S-fuscumol so we hypothesized that a synthetic lure of pure S-fuscumol would be more attractive than pure R-fuscumol, and possibly more attractive than racemic fuscumol, especially if R-fuscumol was the major pheromone component of a sympatric sibling species such as T. castaneum. The ultimate objective was to determine if we could improve the efficacy of the lure for use in applications for survey and control of T. fuscum. Conducting the experiment in Poland allowed us to test the response of a different population of T. fuscum from that in Halifax and also to determine the attraction of the pheromone lures to another potentially invasive species, T. castaneum. […]

T. fuscum [5] = assay: Field trapping, Colossus traps, McNabs Island, Halifax, 2006; type: in vivo, Tetropium fuscum; settings: female and male T. fuscum; compared with host volatiles alone or unbaited traps; 8-week trapping
Text: (§2) FIG. 3. Mean number (+SE) of male and female T. fuscum (a) and T. cinnamopterum (b) captured in COLOSSUS TRAPS™ (insect traps) baited with synthetic pheromone candidate (P), host volatile lures (HV), P plus host volatiles (P+HV), or un-baited traps, over the entire 8-week trapping period. […] Data for T. fuscum males and females and T. cinnamopterum females were transformed by log (y+1); data for the catch of T. cinnamopterum males were transformed by square root.
(§3) The synthetic pheromone, alone and in combination with host volatile attractants, was tested in a field experiment on McNabs Island, Halifax, Nova Scotia, from 5 Jul. to 29 Aug. 2006, using COLOSSUS TRAPS™ (insect traps) (PheroTech Inc. Delta, British Columbia) (Sweeney et al. 2006)^4. Unbaited traps and traps baited with host volatiles alone served as controls, for a total of four treatments. Treatments were replicated 15 times in a randomized complete block design with 30 m between traps and blocks. Each trap was suspended from a rope tied between two conifers separated by at least 2 m, with the collecting bucket 10-20 cm above the ground. […] Pheromone was dispensed at ca. initially 800 μg/d dropping to 50 μg/d over a 4 week period (determined by weight loss at 23° C.) from a polymerase chain reaction (PCR) sample tube (Axygen Scientific Inc., CA) (0.2-mL thick) with a 1 mm diam. hole drilled in the cap. […]

T. cinnamopterum = assay: as above; type: in vivo, Tetropium cinnamopterum
Text: as §2, §3

T. fuscum antennae = assay: Electroantennogram (EAG) antennal stimulation; parameters: species or system Tetropium fuscum; settings: EAG puffs ca. 30 ng source concentration
Experimental: (§4) Extracts (cal male equivalent in hexane) and synthetics (30 ng fuscumol) were tested for antennal stimulation of T. fuscum and T. cinnamopterum males and females using an electroantennogram (EAG) system and EAG/GC-EAD signal recording (IDAC-232) and analysis software v.2.6 (SYNTECH, The Netherlands). Antennae from males and females were excised close to the head and used intact with SPECTRA-60™ gel (electrode gel) (Parker, USA) for electrical contact.
as §4, with “(ca.1” for “(cal”, “Spectra©-60” for “SPECTRA-60™”, “gel” for “gel (electrode gel)”

[6] = tested on: T. cinnamopterum antennae; assay: Electroantennogram (EAG) antennal stimulation; parameters: species or system Tetropium cinnamopterum; settings: EAG puffs ca. 30 ng source concentration
Experimental: as §4
as §4, with “(ca.1” for “(cal”, “Spectra©-60” for “SPECTRA-60™”, “gel” for “gel (electrode gel)”

CC(=O)OC/C=C(\C)CCC=C(C)C [fuscumate, geranyl acetate]
catch compared to SB+E (T. fuscum [1]): did not boost catch; also recorded: no effect on attraction | catch compared to SB+E (T. castaneum [2]): did not boost catch; also recorded: no effect on attraction

CC(C)=CCC/C(C)=C/CC[C@H](C)O [S-fuscumol, (2S, 5E)-6,10-dimethyl-5,9-undecadien-2-ol]
attractiveness compared with R-fuscumol or an unbaited trap (T. fuscum [3]; without host volatile lures): significantly more attractive | mean catch compared with racemic fuscumol (T. fuscum [3]; without host volatile lures): did not differ significantly | attraction of T. castaneum (T. castaneum [4]): attracted

CC(C)=CCC/C(C)=C/CC[C@@H](C)O [R-fuscumol]
attraction of T. fuscum to S-fuscumol in the presence of R-fuscumol (T. fuscum [3]; racemic versus S-fuscumol): not reduced

CC(C)=CCC/C(C)=C/CCC(C)O (racemic) [racemic fuscumol, (E)-6,10-dimethyl-5,9-undecadien-2-ol]
trap catch compared among lure treatments (T. fuscum [5]): did not differ from that in unbaited traps | trap catch compared with unbaited traps (T. cinnamopterum; T. cinnamopterum, fuscumol alone): did not differ from that in unbaited traps | response of male T. cinnamopterum (T. cinnamopterum; males): Lack of response | antennal response in females relative to males (T. fuscum antennae): 2-3 times | antennal response (EAG) (T. fuscum antennae; females, n=5): 6.05 ± 0.3 mV | antennal response in females relative to males [6]: 2-3 times | antennal response (EAG) ([6]; females, n=5): 1.7 ± 0.2 mV | attraction of T. castaneum (T. castaneum [4]): attracted | catch compared to SB+E (T. castaneum [2]): significantly increased catch
